Reference: patent US9556165B2 (priority 2012, dated 2017)
Values after ≈ are worked out from the molar mass of the structure shown. Where two headings read alike, the source gives them in different places.

Tests used:
Type in all cases: cell-based
S. pneumoniae 113 = test: MIC determination, broth microdilution (CLSI); settings: Streptococcus pneumoniae, 113, strain 13; broth microdilution; read-out: MIC strain 13 (S. pneumoniae 113)
A. baumannii ATCC15308 = test: MIC determination, broth microdilution (CLSI); settings: Acinetobacter baumannii, ATCC15308, strain 9
H. influenzae ATCC 49247 = test: MIC determination, broth microdilution (CLSI); settings: Haemophilus influenzae, ATCC49247, strain 12; broth microdilution; read-out: MIC strain 12 (H. influenzae ATCC 49247)
C. perfringens DSM756 = test: microbe, parasite or virus in culture; settings: Clostridium perfringens, DSM756, read-out: MIC strain 16 (C. perfringens DSM756), strain 16; broth microdilution
K. pneumoniae 60 = test: MIC determination, broth microdilution (CLSI); settings: Klebsiella pneumoniae, 60, strain 2
C. freundii K21/3034 = test: MIC determination, broth microdilution (CLSI); settings: Citrobacter freundii, K21/3034, strain 4
[1] = test system: P. aeruginosa 2297 (AmpC wt); test: MIC determination, broth microdilution (CLSI); settings: Pseudomonas aeruginosa, strain 7
E. coli J62 = test: MIC determination, broth microdilution (CLSI); settings: Escherichia coli, J62, strain 17; broth microdilution; read-out: MIC strain 17 (E. coli J62)
S. maltophilia ICB7569 = test: MIC determination, broth microdilution (CLSI); settings: Stenotrophomonas maltophilia, ICB7569, strain 10
S. aureus 133 = test: MIC determination, broth microdilution (CLSI)
E. coli ATCC25922 = test: MIC determination, broth microdilution (CLSI); settings: Escherichia coli, ATCC25922, strain 1
E. cloacae 34654 = test: MIC determination, broth microdilution (CLSI); settings: Enterobacter cloacae, 34654, strain 3
Bacteria = test: MIC determination in combination with β-lactamase inhibitors (constant 4 μg/mL)
B. fragilis 6688 = test: MIC determination, broth microdilution (CLSI); settings: Bacteroides fragilis, 6688, strain 15; broth microdilution; read-out: MIC strain 15 (B. fragilis 6688)
[2] = test system: P. aeruginosa 2297-con (AmpC derepressed); test: MIC determination, broth microdilution (CLSI); settings: Pseudomonas aeruginosa, read-out: strain 8 MIC, strain 8
M. morganii 126/3048 = test: MIC determination, broth microdilution (CLSI); settings: Morganella morganii, 126/3048, strain 5
P. aeruginosa PAO1 = test: MIC determination, broth microdilution (CLSI); settings: Pseudomonas aeruginosa, PAO1, strain 6
E. coli J62-TEM-3 = test: MIC determination, broth microdilution (CLSI); settings: Escherichia coli, J62TEM3, read-out: MIC strain 18 (E. coli J62-TEM-3), strain 18; broth microdilution
[3] = Staphylococcus aureus, 133, strain 11, read-out: strain 11 MIC
[4] = Staphylococcus aureus, 133, strain 14, broth microdilution, read-out: MIC strain 14 (S. aureus 133)

Row | SMILES | MIC (S. pneumoniae 113) [µg/mL] | MIC (A. baumannii ATCC15308) [µg/mL] | MIC (H. influenzae ATCC 49247) [µg/mL] | MIC (C. perfringens DSM756) [µg/mL] | MIC (K. pneumoniae 60) [µg/mL] | MIC (C. freundii K21/3034) [µg/mL] | MIC [1] [µg/mL] | MIC (E. coli J62) [µg/mL] | MIC (S. maltophilia ICB7569) [µg/mL] | MIC (S. aureus 133; [3]) [µg/mL] | MIC (S. aureus 133; [4]) [µg/mL] | MIC (E. coli ATCC25922) [µg/mL] | MIC (E. cloacae 34654) [µg/mL] | MIC strain 19 (E. coli J62-TEM-3 + 4 μg/mL clavulanic acid) (Bacteria) | MIC strain 20 (E. coli J62-TEM-3 + 4 μg/mL sulbactam) (Bacteria) | MIC strain 21 (E. coli J62-TEM-3 + 4 μg/mL tazobactam) (Bacteria) | MIC (B. fragilis 6688) [µg/mL] | MIC [2] [µg/mL] | MIC (M. morganii 126/3048) [µg/mL] | MIC (P. aeruginosa PAO1) [µg/mL] | also measured
1 | CC1(C)[C@H](NC(=O)/C(=N\O[C@@H](COc2ccc(C(=N)N[C@@H]3CCNC3)cc2)C(=O)O)c2csc(N)n2)C(=O)N1OS(=O)(=O)O [Example 96] | 0.5 (≈ 0.764 µM) | 1 (≈ 1.53 µM) | ≤ 0.063 | 1 (≈ 1.53 µM) | ≤ 0.063 | ≤ 0.063 | 1 (≈ 1.53 µM) | 0.125 (≈ 0.191 µM) | 4 (≈ 6.11 µM) | ≤ 0.063 | 32 (≈ 48.9 µM) | 0.125 (≈ 0.191 µM) | ≤ 0.063 | ≦0.063 mg/L | ≦0.063 mg/L | ≦0.063 mg/L | 8 (≈ 12.2 µM) | 1 (≈ 1.53 µM) | ≤ 0.063 | 1 (≈ 1.53 µM) | MIC (E. coli J62-TEM-3): 4 µg/mL (≈ 6.11 µM)
2 | CC1(C)[C@H](NC(=O)/C(=N\O[C@@H](COc2ccc(C(=N)NC3CCCNC3)cc2)C(=O)O)c2csc(N)n2)C(=O)N1OS(=O)(=O)O (stereo partly drawn) [Example 97, (2S)-2-({[(1Z)-1-(2-Amino-1,3-thiazol-4-yl)-2-{[(3S)-2,2-dimethyl-4-oxo-1-(sulfooxy)azetidin-3-yl]amino}-2-oxoethylidene]amino}oxy)-3-{4-[N-(piperidin-3-yl)carbamimidoyl]phenoxy}propanoic acid] | 0.5 (≈ 0.748 µM) | 1 (≈ 1.5 µM) | ≤ 0.063 | 0.5 (≈ 0.748 µM) | 0.125 (≈ 0.187 µM) | ≤ 0.063 | 1 (≈ 1.5 µM) | 0.125 (≈ 0.187 µM) | 4 (≈ 5.98 µM) | ≤ 0.063 | 32 (≈ 47.9 µM) | ≤ 0.063 | 0.125 (≈ 0.187 µM) | ≦0.063 mg/L | ≦0.063 mg/L | ≦0.063 mg/L | 4 (≈ 5.98 µM) | 1 (≈ 1.5 µM) | ≤ 0.063 | 1 (≈ 1.5 µM) | MIC (E. coli J62-TEM-3): 4 µg/mL (≈ 5.98 µM)
3 | CC1(C)[C@H](NC(=O)/C(=N\O[C@@H](COc2ccc(C(=N)NCC3CCCN3)cc2)C(=O)O)c2csc(N)n2)C(=O)N1OS(=O)(=O)O (stereo partly drawn) [Example 98, (2S)-2-({[(1Z)-1-(2-Amino-1,3-thiazol-4-yl)-2-{[(3S)-2,2-dimethyl-4-oxo-1-(sulfooxy)-azetidin-3-yl]amino}-2-oxoethylidene]amino}oxy)-3-{4-[N-(pyrrolidin-2-ylmethyl)carbamimidoyl]phenoxy}propanoic acid] | 0.5 (≈ 0.748 µM) | 1 (≈ 1.5 µM) | ≤ 0.063 | 2 (≈ 2.99 µM) | 0.125 (≈ 0.187 µM) | 0.125 (≈ 0.187 µM) | 2 (≈ 2.99 µM) | 0.125 (≈ 0.187 µM) | 4 (≈ 5.98 µM) | ≤ 0.063 | 32 (≈ 47.9 µM) | 0.125 (≈ 0.187 µM) | 0.125 (≈ 0.187 µM) | 0.125 µg/mL | 0.125 µg/mL | 0.125 µg/mL | 8 (≈ 12 µM) | 2 (≈ 2.99 µM) | ≤ 0.063 | 1 (≈ 1.5 µM) | MIC (E. coli J62-TEM-3): 8 µg/mL (≈ 12 µM)
4 | CC1(C)[C@H](NC(=O)/C(=N\O[C@@H](COc2ccc(C(=N)NCC3CCCCN3)cc2)C(=O)O)c2csc(N)n2)C(=O)N1OS(=O)(=O)O (stereo partly drawn) [Example 99, (2S)-2-({[(1Z)-1-(2-Amino-1,3-thiazol-4-yl)-2-{[(3S)-2,2-dimethyl-4-oxo-1-(sulfooxy)-azetidin-3-yl]amino}-2-oxoethylidene]amino}oxy)-3-{4-[N-(piperidin-2-ylmethyl)carbamimidoyl]phenoxy}propanoic acid] | 0.5 (≈ 0.732 µM) | 2 (≈ 2.93 µM) | ≤ 0.063 | 0.5 (≈ 0.732 µM) | 0.25 (≈ 0.366 µM) | 0.125 (≈ 0.183 µM) | 2 (≈ 2.93 µM) | 0.25 (≈ 0.366 µM) | 4 (≈ 5.86 µM) | ≤ 0.063 | 32 (≈ 46.9 µM) | 0.125 (≈ 0.183 µM) | 0.25 (≈ 0.366 µM) | 0.125 µg/mL | 0.125 µg/mL | 0.25 µg/mL | 8 (≈ 11.7 µM) | 2 (≈ 2.93 µM) | ≤ 0.063 | 2 (≈ 2.93 µM) | MIC (E. coli J62-TEM-3): 4 µg/mL (≈ 5.86 µM)
